The record followed here is patent US5932743A, “Methods for the solid phase synthesis of substituted indole compounds” (American Home Products Corporation, priority 1998, dated 1999).

The assay deals with T1, human estrogen receptor (Homo sapiens, UniProt P03372).
T1 construct: expressed in transfected cells; host or cells: Chinese Hamster Ovary cells (CHO), stably transfected
T1 sequence (P03372 1-595): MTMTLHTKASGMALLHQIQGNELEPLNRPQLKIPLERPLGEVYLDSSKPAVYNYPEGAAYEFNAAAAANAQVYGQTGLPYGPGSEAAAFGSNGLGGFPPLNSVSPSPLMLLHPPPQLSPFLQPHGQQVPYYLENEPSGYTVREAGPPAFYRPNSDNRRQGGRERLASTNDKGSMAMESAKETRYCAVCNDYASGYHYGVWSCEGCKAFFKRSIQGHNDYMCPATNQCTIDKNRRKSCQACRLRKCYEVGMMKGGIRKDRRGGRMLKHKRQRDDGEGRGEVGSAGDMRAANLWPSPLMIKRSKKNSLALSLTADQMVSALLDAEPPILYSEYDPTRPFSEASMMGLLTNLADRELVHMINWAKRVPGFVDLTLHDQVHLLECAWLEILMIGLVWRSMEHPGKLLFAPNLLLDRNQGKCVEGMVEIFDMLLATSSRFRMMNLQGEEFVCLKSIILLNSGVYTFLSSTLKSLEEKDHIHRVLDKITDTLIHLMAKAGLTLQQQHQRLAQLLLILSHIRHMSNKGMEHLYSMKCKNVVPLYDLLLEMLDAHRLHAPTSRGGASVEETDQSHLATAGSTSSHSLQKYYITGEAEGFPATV
Briefly: 2X VIT ERE Transfection Assay (estrogen receptor assay; luciferase reporter activity compared to 17β-estradiol in CHO cells stably transfected with the human estrogen receptor). The format is cell-based. The conditions noted are these: 1 μM compound. The procedure: Enhancement of luciferase gene expression in this model is dependent upon estrogen receptor (ER) interaction with a vitellogenin gene estrogen responsive element (ERE) capable of enhancing basal promoter activity. This is a sensitive and rapid methodology to assess estrogenic/antiestrogenic potency of compounds.
48 h prior to treatment the growth medium is replaced with DMEM lacking phenol red+10% dextran coated charcoal stripped FBS (treatment medium). Cells are plated at a density of 5000 cells/well in 96-well plates containing 200 μL of medium/well.
20 μL of this mixture is added to each well of cells and remains on the cells for 16 h. […] Each treatment condition is performed on 8 wells (n=8) which are incubated for 24 h prior to luciferase assay.
The data is logged and automatically sent to a JMP statistical program for analysis. A hard copy printout is also produced at the time of the assay.
A plate containing a standard curve (0.1 to 1.5 milliunits in triplicate) is set up for each experimental run. The plates are analyzed on a Molecular Devices spectrophotometric plate reader at 410 nm. The optical densities for the unknowns are converted to milliunits of activity by mathematical extrapolation from the standard curve. […] The mean and standard deviation is determined from a n=8 for each treatment.
On the technique in general: In a reporter assay the amount or activity of a reporter protein is the signal.

Turning to `CCOC(=O)Cn1c(-c2ccccc2)c(C2=C(C(=O)OC)CCC2)c2ccc(C(=O)O)cc21` [Example 12, 1-Ethoxycarbonylmethyl-3-(2-methoxycarbonyl-cyclopent-1-enyl)-2-phenyl-1H-indole-6-carboxylic Acid], the “estrogenic classification / activity in words” value is recorded as “estrogenic”.
